Data: publication PMC6109843, “Novel Quinazolinone Inhibitors of ALK2 Flip between Alternate Binding Modes: Structure–Activity Relationship, Structural Characterization, Kinase Profiling, and Cellular Proof of Concept” (Journal of Medicinal Chemistry, 2018)

What was measured:
Assay in all cases: DiscoverX scanEDGE kinase panel
Assay type in all cases: binding
Conditions in all cases: Cmpd Conc 1000 nM, read-out: % Ctrl
PIK3C2B = target: T1, PIK3C2B (Homo sapiens, UniProt O00750)
T1 construct: purchased DiscoverX (DiscoveRx) KINOMEscan scanEDGE / KdELECT
From the text: (§1) We hypothesized that inhibitors of the normal and flipped modes would display distinct selectivity profiles.
(§2) 1. 16 and 21 kinome selectivity data
(§3) (P – phosphorylated; nP – nonphosphorylated; % Ctrl values show the % of DNAEtagged
(§4) kinase which was not displaced from a solid supported ligand by a test compound relative to
(§5) untreated control, quantified by qPCR).
(§6) Please note: ALKs 1, 2, 3, 4, 5 and 6 are listed by their gene symbols: ACVRL1 (ALK1), ACVR1
(§7) (ALK2), BMPR1A (ALK3), ACVR1B (ALK4), TGFBR1 (ALK5) and BMPR1B (ALK6)
(§8) Cmpd DiscoverX Gene Symbol Entrez Gene Symbol % Ctrl Cmpd Conc (nM)

IKKEbeta = target: T2, IKKEbeta (Homo sapiens, UniProt O14920)
T2 construct: purchased DiscoverX (DiscoveRx) KINOMEscan scanEDGE / KdELECT
From the text: as §1, §2, §3, §4, §5, §6, §7, §8

IGF1R = target: T3, IGF1R (Homo sapiens, UniProt P08069)
T3 construct: purchased DiscoverX (DiscoveRx) KINOMEscan scanEDGE / KdELECT
From the text: as §1, §2, §3, §4, §5, §6, §7, §8

AKT1 = target: T4, AKT1 (Homo sapiens, UniProt P31749)
T4 construct: purchased DiscoverX (DiscoveRx) KINOMEscan scanEDGE / KdELECT
From the text: as §1, §2, §3, §4, §5, §6, §7, §8

SNARK = target: T5, SNARK (Homo sapiens, UniProt Q9H093)
T5 construct: purchased DiscoverX (DiscoveRx) KINOMEscan scanEDGE / KdELECT
From the text: as §1, §2, §3, §4, §5, §6, §7, §8

JNK2 = target: T6, JNK2 (Homo sapiens, UniProt P45984)
T6 construct: purchased DiscoverX (DiscoveRx) KINOMEscan scanEDGE / KdELECT
From the text: as §1, §2, §3, §4, §5, §6, §7, §8

INSR = target: T7, INSR (Homo sapiens, UniProt P06213)
T7 construct: purchased DiscoverX (DiscoveRx) KINOMEscan scanEDGE / KdELECT
T7 sequence (P06213 28-1382): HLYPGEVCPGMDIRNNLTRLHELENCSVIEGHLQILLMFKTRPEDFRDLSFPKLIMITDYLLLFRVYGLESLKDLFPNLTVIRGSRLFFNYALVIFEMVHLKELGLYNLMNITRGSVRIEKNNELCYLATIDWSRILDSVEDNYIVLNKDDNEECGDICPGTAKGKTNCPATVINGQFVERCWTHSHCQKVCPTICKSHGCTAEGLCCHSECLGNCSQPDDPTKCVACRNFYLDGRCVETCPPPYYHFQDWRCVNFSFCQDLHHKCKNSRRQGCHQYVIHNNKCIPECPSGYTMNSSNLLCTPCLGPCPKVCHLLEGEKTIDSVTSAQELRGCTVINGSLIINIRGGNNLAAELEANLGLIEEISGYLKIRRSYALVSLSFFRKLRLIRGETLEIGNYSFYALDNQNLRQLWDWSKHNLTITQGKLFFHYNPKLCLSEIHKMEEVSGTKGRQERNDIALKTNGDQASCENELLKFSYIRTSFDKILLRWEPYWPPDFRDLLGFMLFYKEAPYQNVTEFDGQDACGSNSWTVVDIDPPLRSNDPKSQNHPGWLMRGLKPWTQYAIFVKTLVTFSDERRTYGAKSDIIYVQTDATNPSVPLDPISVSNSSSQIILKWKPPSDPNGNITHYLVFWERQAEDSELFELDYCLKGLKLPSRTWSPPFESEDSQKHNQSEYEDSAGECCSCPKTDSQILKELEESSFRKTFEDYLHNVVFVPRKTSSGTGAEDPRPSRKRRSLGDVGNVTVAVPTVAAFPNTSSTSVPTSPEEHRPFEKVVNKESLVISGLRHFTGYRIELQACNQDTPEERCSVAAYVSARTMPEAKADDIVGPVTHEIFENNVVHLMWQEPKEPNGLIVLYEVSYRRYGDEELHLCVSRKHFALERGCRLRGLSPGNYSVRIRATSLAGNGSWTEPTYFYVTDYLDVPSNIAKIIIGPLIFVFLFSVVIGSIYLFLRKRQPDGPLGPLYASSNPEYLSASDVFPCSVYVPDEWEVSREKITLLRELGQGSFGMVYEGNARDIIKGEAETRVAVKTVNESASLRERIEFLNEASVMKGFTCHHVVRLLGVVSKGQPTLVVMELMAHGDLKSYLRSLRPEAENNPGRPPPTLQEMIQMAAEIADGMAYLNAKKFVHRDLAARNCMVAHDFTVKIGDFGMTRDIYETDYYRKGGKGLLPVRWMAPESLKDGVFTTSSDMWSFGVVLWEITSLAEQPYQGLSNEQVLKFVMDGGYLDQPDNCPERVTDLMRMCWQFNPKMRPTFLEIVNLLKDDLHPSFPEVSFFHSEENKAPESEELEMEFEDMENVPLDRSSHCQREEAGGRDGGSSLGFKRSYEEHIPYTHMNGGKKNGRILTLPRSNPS
From the text: as §1, §2, §3, §4, §5, §6, §7, §8

PIK3CA = target: T8, PIK3CA (Homo sapiens, UniProt P42336)
T8 construct: purchased DiscoverX (DiscoveRx) KINOMEscan scanEDGE / KdELECT
From the text: as §1, §2, §3, §4, §5, §6, §7, §8

JNK1 = target: T9, JNK1 (Homo sapiens, UniProt P45983)
T9 construct: purchased DiscoverX (DiscoveRx) KINOMEscan scanEDGE / KdELECT
From the text: as §1, §2, §3, §4, §5, §6, §7, §8

SRC = target: T10, SRC (Homo sapiens, UniProt P12931)
T10 construct: purchased DiscoverX (DiscoveRx) KINOMEscan scanEDGE / KdELECT
From the text: as §1, §2, §3, §4, §5, §6, §7, §8

PLK4 = target: T11, PLK4 (Homo sapiens, UniProt O00444)
T11 construct: purchased DiscoverX (DiscoveRx) KINOMEscan scanEDGE / KdELECT
From the text: as §1, §2, §3, §4, §5, §6, §7, §8

PDPK1 = target: T12, PDPK1 (Homo sapiens, UniProt O15530)
T12 construct: purchased DiscoverX (DiscoveRx) KINOMEscan scanEDGE / KdELECT
From the text: as §1, §2, §3, §4, §5, §6, §7, §8

LKB1 = target: T13, LKB1 (Homo sapiens, UniProt Q15831)
T13 construct: purchased DiscoverX (DiscoveRx) KINOMEscan scanEDGE / KdELECT
From the text: as §1, §2, §3, §4, §5, §6, §7, §8

PAK2 = target: T14, PAK2 (Homo sapiens, UniProt Q13177)
T14 construct: purchased DiscoverX (DiscoveRx) KINOMEscan scanEDGE / KdELECT
From the text: as §1, §2, §3, §4, §5, §6, §7, §8

JNK3 = target: T15, JNK3 (Homo sapiens, UniProt P53779)
T15 construct: purchased DiscoverX (DiscoveRx) KINOMEscan scanEDGE / KdELECT
From the text: as §1, §2, §3, §4, §5, §6, §7, §8

ALK = target: T16, ALK (Homo sapiens, UniProt Q9UM73)
T16 construct: purchased DiscoverX (DiscoveRx) KINOMEscan scanEDGE / KdELECT
From the text: as §1, §2, §3, §4, §5, §6, §7, §8

MET = target: T17, MET (Homo sapiens, UniProt P08581)
T17 construct: purchased DiscoverX (DiscoveRx) KINOMEscan scanEDGE / KdELECT
T17 sequence (P08581 25-1390): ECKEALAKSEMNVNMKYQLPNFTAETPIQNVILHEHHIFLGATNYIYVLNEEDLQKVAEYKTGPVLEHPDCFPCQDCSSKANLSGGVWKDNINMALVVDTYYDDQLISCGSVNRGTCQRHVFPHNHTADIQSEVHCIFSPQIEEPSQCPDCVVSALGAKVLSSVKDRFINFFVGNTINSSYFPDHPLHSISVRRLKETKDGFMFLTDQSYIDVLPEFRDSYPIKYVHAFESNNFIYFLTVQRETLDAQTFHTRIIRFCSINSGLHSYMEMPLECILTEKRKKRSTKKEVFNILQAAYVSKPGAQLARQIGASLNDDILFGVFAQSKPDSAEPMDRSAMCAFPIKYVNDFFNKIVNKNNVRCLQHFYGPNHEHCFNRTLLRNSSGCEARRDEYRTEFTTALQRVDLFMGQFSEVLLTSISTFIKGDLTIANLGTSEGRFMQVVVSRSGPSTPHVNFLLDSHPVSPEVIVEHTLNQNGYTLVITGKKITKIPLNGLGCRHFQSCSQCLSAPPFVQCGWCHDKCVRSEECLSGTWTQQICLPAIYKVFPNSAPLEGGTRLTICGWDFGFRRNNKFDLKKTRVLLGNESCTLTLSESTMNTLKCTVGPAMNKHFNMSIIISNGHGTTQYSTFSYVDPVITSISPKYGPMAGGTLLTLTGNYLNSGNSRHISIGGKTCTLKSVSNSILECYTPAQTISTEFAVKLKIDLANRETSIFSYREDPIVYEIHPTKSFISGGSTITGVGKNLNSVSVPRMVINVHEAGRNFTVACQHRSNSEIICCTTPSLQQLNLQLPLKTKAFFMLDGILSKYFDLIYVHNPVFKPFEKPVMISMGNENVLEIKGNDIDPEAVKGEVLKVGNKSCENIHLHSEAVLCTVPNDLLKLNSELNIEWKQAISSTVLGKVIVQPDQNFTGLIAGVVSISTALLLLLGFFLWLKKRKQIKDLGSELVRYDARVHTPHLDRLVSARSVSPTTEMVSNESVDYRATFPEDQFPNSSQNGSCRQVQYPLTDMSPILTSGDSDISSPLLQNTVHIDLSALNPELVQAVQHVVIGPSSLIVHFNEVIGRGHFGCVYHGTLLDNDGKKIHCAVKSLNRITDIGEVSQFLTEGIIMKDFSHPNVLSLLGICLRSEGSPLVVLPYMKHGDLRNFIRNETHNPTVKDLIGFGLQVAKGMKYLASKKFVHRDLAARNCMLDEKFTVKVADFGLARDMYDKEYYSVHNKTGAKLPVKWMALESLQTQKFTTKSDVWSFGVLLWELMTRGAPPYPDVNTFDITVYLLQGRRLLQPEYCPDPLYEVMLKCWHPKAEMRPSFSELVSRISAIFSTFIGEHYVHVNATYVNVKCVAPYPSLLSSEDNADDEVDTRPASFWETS
From the text: as §1, §2, §3, §4, §5, §6, §7, §8

BRAF = target: T18, BRAF (Homo sapiens, UniProt P15056)
T18 construct: purchased DiscoverX (DiscoveRx) KINOMEscan scanEDGE / KdELECT
From the text: as §1, §2, §3, §4, §5, §6, §7, §8

LCK = target: T19, LCK (Homo sapiens, UniProt P06239)
T19 construct: purchased DiscoverX (DiscoveRx) KINOMEscan scanEDGE / KdELECT
From the text: as §1, §2, §3, §4, §5, §6, §7, §8

FYN = target: T20, FYN (Homo sapiens, UniProt P06241)
T20 construct: purchased DiscoverX (DiscoveRx) KINOMEscan scanEDGE / KdELECT
From the text: as §1, §2, §3, §4, §5, §6, §7, §8

GSK3B = target: T21, GSK3B (Homo sapiens, UniProt P49841)
T21 construct: purchased DiscoverX (DiscoveRx) KINOMEscan scanEDGE / KdELECT
From the text: as §1, §2, §3, §4, §5, §6, §7, §8

RIPK2 = target: T22, RIPK2 (Homo sapiens, UniProt O43353)
T22 construct: purchased DiscoverX (DiscoveRx) KINOMEscan scanEDGE / KdELECT
From the text: as §1, §2, §3, §4, §5, §6, §7, §8

SIK2 = target: T23, SIK2 (Homo sapiens, UniProt Q9H0K1)
T23 construct: purchased DiscoverX (DiscoveRx) KINOMEscan scanEDGE / KdELECT
From the text: as §1, §2, §3, §4, §5, §6, §7, §8

BMPR1B (ALK6) = target: T24, BMPR1B (ALK6) (Homo sapiens, UniProt O00238)
T24 construct: purchased DiscoverX (DiscoveRx) KINOMEscan scanEDGE / KdELECT
From the text: as §1, §2, §3, §4, §5, §6, §7, §8

PCTK1 = target: T25, PCTK1 (Homo sapiens, UniProt Q00536)
T25 construct: purchased DiscoverX (DiscoveRx) KINOMEscan scanEDGE / KdELECT
T25 sequence (Q00536 whole entry): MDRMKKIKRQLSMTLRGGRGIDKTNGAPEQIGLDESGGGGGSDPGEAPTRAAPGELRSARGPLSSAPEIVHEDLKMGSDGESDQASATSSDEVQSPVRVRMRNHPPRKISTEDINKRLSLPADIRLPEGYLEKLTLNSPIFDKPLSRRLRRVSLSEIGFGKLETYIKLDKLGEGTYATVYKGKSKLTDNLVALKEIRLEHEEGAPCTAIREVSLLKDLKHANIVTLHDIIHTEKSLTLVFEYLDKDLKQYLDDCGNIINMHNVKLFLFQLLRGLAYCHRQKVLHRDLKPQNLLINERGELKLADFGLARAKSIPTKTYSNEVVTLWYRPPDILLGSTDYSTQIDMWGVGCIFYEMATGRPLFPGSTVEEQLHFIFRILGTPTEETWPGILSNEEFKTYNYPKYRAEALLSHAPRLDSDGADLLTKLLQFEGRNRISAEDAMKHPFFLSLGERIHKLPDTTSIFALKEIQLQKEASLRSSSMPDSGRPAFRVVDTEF
From the text: as §1, §2, §3, §4, §5, §6, §7, §8

TYK2(JH1domain) = target: T26, TYK2(JH1domain) (Homo sapiens, UniProt P29597)
T26 construct: TYK2(JH1domain); purchased DiscoverX (DiscoveRx) KINOMEscan scanEDGE / KdELECT
From the text: as §1, §2, §3, §4, §5, §6, §7, §8

RET = target: T27, RET (Homo sapiens, UniProt P07949)
T27 construct: purchased DiscoverX (DiscoveRx) KINOMEscan scanEDGE / KdELECT
From the text: as §1, §2, §3, §4, §5, §6, §7, §8

[1] = target: T28, RSK2(Kin.Dom.1ENEterminal) (Homo sapiens, UniProt P51812)
T28 construct: RSK2(Kin.Dom.1ENEterminal); purchased DiscoverX (DiscoveRx) KINOMEscan scanEDGE / KdELECT
From the text: as §1, §2, §3, §4, §5, §6, §7, §8

ULK2 = target: T29, ULK2 (Homo sapiens, UniProt Q8IYT8)
T29 construct: purchased DiscoverX (DiscoveRx) KINOMEscan scanEDGE / KdELECT
T29 sequence (Q8IYT8 whole entry): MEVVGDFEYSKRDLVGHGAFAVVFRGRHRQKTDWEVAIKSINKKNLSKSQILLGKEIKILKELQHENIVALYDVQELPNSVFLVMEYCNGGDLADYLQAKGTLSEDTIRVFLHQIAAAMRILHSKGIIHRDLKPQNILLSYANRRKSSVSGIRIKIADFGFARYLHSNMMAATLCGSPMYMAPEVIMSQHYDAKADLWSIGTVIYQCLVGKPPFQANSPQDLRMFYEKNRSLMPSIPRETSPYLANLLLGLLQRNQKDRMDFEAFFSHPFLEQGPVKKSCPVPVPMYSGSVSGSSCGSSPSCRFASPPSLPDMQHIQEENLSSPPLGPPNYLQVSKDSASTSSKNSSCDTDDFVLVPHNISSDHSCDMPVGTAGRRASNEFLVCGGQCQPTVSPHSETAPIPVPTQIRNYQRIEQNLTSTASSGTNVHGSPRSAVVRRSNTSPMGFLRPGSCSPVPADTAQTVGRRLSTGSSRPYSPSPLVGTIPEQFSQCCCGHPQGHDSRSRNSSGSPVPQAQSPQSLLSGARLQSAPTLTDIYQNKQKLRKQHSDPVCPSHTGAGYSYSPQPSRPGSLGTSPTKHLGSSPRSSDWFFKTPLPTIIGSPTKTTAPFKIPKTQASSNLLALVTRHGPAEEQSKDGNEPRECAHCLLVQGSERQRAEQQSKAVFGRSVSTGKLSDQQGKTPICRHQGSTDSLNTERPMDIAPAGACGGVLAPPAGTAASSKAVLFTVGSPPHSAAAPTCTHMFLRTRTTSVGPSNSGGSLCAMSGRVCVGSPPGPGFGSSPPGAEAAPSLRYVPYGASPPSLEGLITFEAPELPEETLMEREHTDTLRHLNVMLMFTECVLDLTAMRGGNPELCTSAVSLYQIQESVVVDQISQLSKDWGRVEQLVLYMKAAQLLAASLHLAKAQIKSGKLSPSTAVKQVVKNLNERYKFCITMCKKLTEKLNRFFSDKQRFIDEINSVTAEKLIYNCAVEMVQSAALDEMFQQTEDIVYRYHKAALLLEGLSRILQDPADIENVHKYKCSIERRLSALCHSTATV
From the text: as §1, §2, §3, §4, §5, §6, §7, §8

PIM2 = target: T30, PIM2 (Homo sapiens, UniProt Q9P1W9)
T30 construct: purchased DiscoverX (DiscoveRx) KINOMEscan scanEDGE / KdELECT
T30 sequence (Q9P1W9 whole entry): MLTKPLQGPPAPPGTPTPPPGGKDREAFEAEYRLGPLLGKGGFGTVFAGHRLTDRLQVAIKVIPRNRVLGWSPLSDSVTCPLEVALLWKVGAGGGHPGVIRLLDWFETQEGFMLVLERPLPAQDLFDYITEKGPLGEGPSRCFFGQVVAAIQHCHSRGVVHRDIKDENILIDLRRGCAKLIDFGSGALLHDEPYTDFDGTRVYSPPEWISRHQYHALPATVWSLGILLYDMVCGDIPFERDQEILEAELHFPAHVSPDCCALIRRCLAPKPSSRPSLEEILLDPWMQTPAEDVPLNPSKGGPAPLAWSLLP
From the text: as §1, §2, §3, §4, §5, §6, §7, §8

BRAF(V600E) = target: T31, BRAF(V600E) (Homo sapiens, UniProt P15056, V600E)
T31 construct: purchased DiscoverX (DiscoveRx) KINOMEscan scanEDGE / KdELECT
From the text: as §1, §2, §3, §4, §5, §6, §7, §8

TGFBR1 (ALK5) = target: T32, TGFBR1 (ALK5) (Homo sapiens, UniProt P36897)
T32 construct: purchased DiscoverX (DiscoveRx) KINOMEscan scanEDGE / KdELECT
T32 sequence (P36897 34-503): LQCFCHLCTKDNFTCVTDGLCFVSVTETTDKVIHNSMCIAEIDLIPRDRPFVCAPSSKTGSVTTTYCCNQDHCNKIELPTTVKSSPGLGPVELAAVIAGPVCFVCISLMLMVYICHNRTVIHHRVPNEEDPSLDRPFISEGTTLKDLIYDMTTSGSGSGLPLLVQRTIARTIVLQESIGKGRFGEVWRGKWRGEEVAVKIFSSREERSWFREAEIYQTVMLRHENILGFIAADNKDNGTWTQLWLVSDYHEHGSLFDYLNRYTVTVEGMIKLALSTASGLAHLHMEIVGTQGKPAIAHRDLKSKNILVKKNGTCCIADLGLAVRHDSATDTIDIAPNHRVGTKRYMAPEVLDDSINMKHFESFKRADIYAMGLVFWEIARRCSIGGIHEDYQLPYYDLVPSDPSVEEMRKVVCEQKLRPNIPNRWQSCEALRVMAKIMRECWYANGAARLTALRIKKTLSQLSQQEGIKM
From the text: as §1, §2, §3, §4, §5, §6, §7, §8

BTK = target: T33, BTK (Homo sapiens, UniProt Q06187)
T33 construct: purchased DiscoverX (DiscoveRx) KINOMEscan scanEDGE / KdELECT
From the text: as §1, §2, §3, §4, §5, §6, §7, §8

ABL1(T315I)EP = target: T34, ABL1(T315I)EP (Homo sapiens, UniProt P00519, T315I)
T34 construct: purchased DiscoverX (DiscoveRx) KINOMEscan scanEDGE / KdELECT
From the text: as §1, §2, §3, §4, §5, §6, §7, §8

MINK = target: T35, MINK (Homo sapiens, UniProt Q8N4C8)
T35 construct: purchased DiscoverX (DiscoveRx) KINOMEscan scanEDGE / KdELECT
From the text: as §1, §2, §3, §4, §5, §6, §7, §8

AURKB = target: T36, AURKB (Homo sapiens, UniProt Q96GD4)
T36 construct: purchased DiscoverX (DiscoveRx) KINOMEscan scanEDGE / KdELECT
From the text: as §1, §2, §3, §4, §5, §6, §7, §8

MEK1 = target: T37, MEK1 (Homo sapiens, UniProt Q02750)
T37 construct: purchased DiscoverX (DiscoveRx) KINOMEscan scanEDGE / KdELECT
From the text: as §1, §2, §3, §4, §5, §6, §7, §8

KIT(D816H) = target: T38, KIT(D816H) (Homo sapiens, UniProt P10721, D816H)
T38 construct: purchased DiscoverX (DiscoveRx) KINOMEscan scanEDGE / KdELECT
From the text: as §1, §2, §3, §4, §5, §6, §7, §8

## Cc1nc2ccc(-c3ccnc4ccccc34)c(C)c2c(=O)[nH]1 [compound 21, 2,5-Dimethyl-6-(quinolin-4-yl)quinazolin-4(3H)-one]
PIK3C2B
  remaining binding at 1 µM: 98%
IKKEbeta
  remaining binding at 1 µM: 95%
IGF1R
  remaining binding at 1 µM: 94%
AKT1
  remaining binding at 1 µM: 100%
SNARK
  remaining binding at 1 µM: 100%
JNK2
  remaining binding at 1 µM: 91%
INSR
  remaining binding at 1 µM: 93%
PIK3CA
  remaining binding at 1 µM: 100%
JNK1
  remaining binding at 1 µM: 91%
SRC
  remaining binding at 1 µM: 98%
PLK4
  remaining binding at 1 µM: 100%
PDPK1
  remaining binding at 1 µM: 95%
LKB1
  remaining binding at 1 µM: 100%
PAK2
  remaining binding at 1 µM: 77%
JNK3
  remaining binding at 1 µM: 79%
ALK
  remaining binding at 1 µM: 100%
MET
  remaining binding at 1 µM: 88%
BRAF
  remaining binding at 1 µM: 17%
LCK
  remaining binding at 1 µM: 96%
FYN
  remaining binding at 1 µM: 100%
GSK3B
  remaining binding at 1 µM: 97%
RIPK2
  remaining binding at 1 µM: 68%
SIK2
  remaining binding at 1 µM: 100%
BMPR1B (ALK6)
  remaining binding at 1 µM: 1.6%
PCTK1
  remaining binding at 1 µM: 94%
TYK2(JH1domain)
  remaining binding at 1 µM: 95%
RET
  remaining binding at 1 µM: 99%
[1]
  remaining binding at 1 µM: 97%
ULK2
  remaining binding at 1 µM: 77%
PIM2
  remaining binding at 1 µM: 96%
BRAF(V600E)
  remaining binding at 1 µM: 11%
TGFBR1 (ALK5)
  remaining binding at 1 µM: 30%
BTK
  remaining binding at 1 µM: 100%
ABL1(T315I)EP
  remaining binding at 1 µM: 97%
MINK
  remaining binding at 1 µM: 89%
AURKB
  remaining binding at 1 µM: 94%
MEK1
  remaining binding at 1 µM: 85%
KIT(D816H)
  remaining binding at 1 µM: 90%
